{
  "source": "patent US6096874A",
  "about": "(Board of Regents, the University of Texas System, priority 1995, dated 2000)",
  "key": {"[1]": {"experiment": "Acute/immediate toxicity following i.v. injection in BALB/c mice", "conditions": "mouse, in vivo, iv", "description": "Acute toxicity studies were performed in BALB/c female mice with doses tested at 20, 50 and 200 mg/kg (i.v., n=5 mice per dose)."}, "[2]": {"tested_on": "MCF-7 human breast cancer cells", "experiment": "MCF-7 human breast cancer xenograft growth in nude mice", "format": "in vivo, mouse", "conditions": "50 μg daily s.c.", "source_text": "The cultures were free of mycoplasma and pathogenic murine viruses (assayed by Microbiological Associates, Bethesda, Md.). Female athymic NCr-nu/nu mice were obtained from the NCI-Frederick Cancer Research Facility (Frederick, Md.). The mice were maintained in specific-pathogen-free conditions in a facility approved by the American Association for Accreditation of Laboratory Animal Care. […] A 60-day release pellet containing […] 17-β estradiol (Innovative Research of America, Toledo, Ohio) was implanted s.c. in each animal. After 20 days the 17β estradiol […] removed from one group, and these mice were not treated further."}, "breast cancer [3]": {"tested_on": "breast cancer", "experiment": "Response of PET-imaged patients to tamoxifen treatment", "format": "in vivo, human"}, "breast cancer [4]": {"tested_on": "breast cancer", "conditions": "unselected patients with breast cancer; cited from earlier work"}},
  "note": "Entries after “also recorded” stand apart in the source; their conditions may differ.",
  "data": [
    {"molecule": "CCN(CC)CCOc1ccc(C(=C(CCCI)c2ccccc2)c2ccccc2)cc1", "note": "[iodotamoxifen]", "values": [
      {"measurement": "MTD", "setting": "[1]", "value": 50, "unit": "mg/kg"},
      {"measurement": "ER(+) MCF-7 tumor growth (in words)", "setting": "[2]", "value": "reduced ER(+) breast tumor growth; also recorded: growth of the MCF-7 tumors was greatly reduced"}
    ]},
    {"molecule": "CC/C(=C(\\c1ccccc1)c1ccc(OCCN(C)C)cc1)c1ccccc1", "note": "[Compound I, Tamoxifen]", "values": [
      {"measurement": "ER(+) MCF-7 tumor growth (in words)", "setting": "[2]", "value": "reduced ER(+) breast tumor growth; also recorded: growth of the MCF-7 tumors was greatly reduced"},
      {"measurement": "Response of TX treat.", "setting": "breast cancer [3]; patient 1", "value": "poor"},
      {"measurement": "Response of TX treat.", "setting": "breast cancer [3]; patient 2", "value": "poor"},
      {"measurement": "Response of TX treat.", "setting": "breast cancer [3]; patient 3", "value": "good"},
      {"measurement": "Response of TX treat.", "setting": "breast cancer [3]; patient 4", "value": "poor"},
      {"measurement": "Response of TX treat.", "setting": "breast cancer [3]; patient 5", "value": "good"},
      {"measurement": "Response of TX treat.", "setting": "breast cancer [3]; patient 7", "value": "poor"},
      {"measurement": "Response of TX treat.", "setting": "breast cancer [3]; patient 9", "value": "poor"},
      {"measurement": "Response of TX treat.", "setting": "breast cancer [3]; patient 10", "value": "good"},
      {"measurement": "Response to tamoxifen therapy (in words)", "setting": "breast cancer [3]; three patients with tumor uptake", "value": "positive response to tamoxifen therapy"},
      {"measurement": "Positive therapy results", "setting": "breast cancer [4]", "value": 30, "unit": "%"}
    ]}
  ]
}
